Where two headings read alike, the source gives them in different places.
Tests used:
[1] = test system: Puccinia triticina (Synonym: Puccinia recondita f sp. tritici; Bayer Code PUCCRT); test: Fungicidal activity: Wheat Brown Rust (PUCCRT), wheat seedlings in greenhouse; format: in vivo; conditions: wheat (variety Yuma)
Procedure: Technical grades of materials were dissolved in acetone, which were then mixed with nine volumes of water containing 110 ppm Triton X-100. The fungicide solutions were applied onto wheat seedlings using an automated booth sprayer to run-off. All sprayed plants were allowed to air dry prior to further handling.
(§1) Wheat plants (variety Yuma) were grown from seed in a greenhouse in 50% mineral soil/50% soil-less Metro mix until the first leaf was fully emerged, with 7-10 seedlings per pot. These plants were inoculated with an aqueous spore suspension of Septoria tritici either prior to or after fungicide treatments. After inoculation the plants were kept in 100% relative humidity (one day in a dark dew chamber followed by two to three days in a lighted dew chamber at 20° C.) to permit spores to germinate and infect the leaf. The plants were then transferred to a greenhouse set at 20° C. for disease to develop. When disease symptoms were fully expressed on the 1st leaves of untreated plants, infection levels were assessed on a scale of 0 to 100 percent disease severity. Percent disease control was calculated using the ratio of disease severity on treated plants relative to untreated plants.
Wheat plants (variety Yuma) were grown from seed in a greenhouse in 50% mineral soil/50% soil-less Metro mix until the first leaf was fully emerged, with 7-10 seedlings per pot. These plants were inoculated with an aqueous spore suspension of Puccinia triticina either prior to or after fungicide treatments. After inoculation the plants were kept in a dark dew room at 22° C. with 100% relative humidity overnight to permit spores to germinate and infect the leaf. The plants were then transferred to a greenhouse set at 24° C. for disease to develop. Fungicide formulation, application and disease assessment followed the procedures as described in Example 18.

[2] = test system: Mycosphaerella graminicola (Anamorph: Septoria tritici; Bayer Code SEPTTR); test: Fungicidal activity: Leaf Blotch of Wheat (SEPTTR), wheat seedlings in greenhouse; format: in vivo; design: key to Disease Control SEPTTR 1DP: A: 80-100; B: More than 0—Less than 80; C: Not Tested; D: No activity noticed in this bioassay; conditions: wheat (variety Yuma); for pest or weed control at 50 ppm: Zymoseptoria tritici
Procedure: as §1, with “Technical grades of materials were dissolved in acetone, which were then mixed with nine volumes of water containing 110 ppm Triton X-100. The fungicide solutions were applied onto wheat seedlings using an automated booth sprayer to run-off. All sprayed plants were allowed to air dry prior to further handling. Wheat” for “Wheat”

[3] = 1DC, read-out: Disease Control PUCCRT 1DC
[4] = 1DP, read-out: Disease Control PUCCRT 1DP
[5] = 1DP, read-out: Disease Control SEPTTR 1DP
[6] = 3DC, read-out: Disease Control SEPTTR 3DC

Work on `NC(=S)c1ccc(Oc2ccc(C(F)(F)C(O)(Cn3nn[nH]c3=S)c3ccc(F)cc3F)nc2)cc1` (centres unmarked) [Compound F1, 4-((6-(2-(2,4-difluorophenyl)-1,1-difluoro-2-hydroxy-3-(5-thioxo-4,5-dihydro-1H-tetrazol-)propyl)pyridin-3-yl)oxy)benzothioamide] yielded a pest or weed control at 50 ppm [1, 3] of 80 to 100%, a pest or weed control at 50 ppm [1, 4] of 80 to 100% and a pest or weed control at 50 ppm [2, 5] of 80 to 100%. For the same compound, the pest or weed control at 50 ppm [2, 6] was 80 to 100% and the melting point was 214 to 218 °C.

For `N#Cc1ccc(Oc2ccc(C(F)(F)C(O)(Cn3nn[nH]c3=S)c3ccc(F)cc3F)nc2)cc1` (centres unmarked) [Compound F2, 4-((6-(2-(2,4-difluorophenyl)-1,1-difluoro-2-hydroxy-3-(5-thioxo-4,5-dihydro-1H-tetrazol-)propyl)pyridin-3-yl)oxy)benzonitrile], the pest or weed control at 50 ppm [1, 4] was 80 to 100%, the pest or weed control at 50 ppm [2, 5] was 80 to 100% and the pest or weed control at 50 ppm [2, 6] was 80 to 100%.

`N#Cc1ccc(Oc2ccc(C(F)(F)C(O)(Cn3nn[nH]c3=S)c3ccc(F)cc3F)nc2)nc1` (centres unmarked) [Compound F3] showed a pest or weed control at 50 ppm [1, 3] of 80 to 100%, a pest or weed control at 50 ppm [1, 4] of 80 to 100% and a pest or weed control at 50 ppm [2, 5] of 80 to 100%. It also gave a pest or weed control at 50 ppm [2, 6] of 0 to 80%.

Work on `OC(Cn1nn[nH]c1=S)(c1ccc(F)cc1F)C(F)(F)c1ccc(Oc2ccc(Cl)cn2)cn1` (centres unmarked) [Compound F4] yielded a pest or weed control at 50 ppm [1, 3] of 80 to 100%, a pest or weed control at 50 ppm [1, 4] of 80 to 100% and a pest or weed control at 50 ppm [2, 5] of 80 to 100%. The pest or weed control at 50 ppm [2, 6] was 80 to 100%.

In the case of `OC(Cn1nn[nH]c1=S)(c1ccc(F)cc1F)C(F)(F)c1ccc(OCC(F)(F)F)cn1` (centres unmarked) [Compound F5], the pest or weed control at 50 ppm [1, 3] is reported as 80 to 100%, the pest or weed control at 50 ppm [1, 4] is reported as 80 to 100% and the pest or weed control at 50 ppm [2, 5] is reported as 80 to 100%. The pest or weed control at 50 ppm [2, 6] was 80 to 100%.

In the case of `CSc1nnnn1CC(O)(c1ccc(F)cc1F)C(F)(F)c1ccc(Br)cn1` (centres unmarked) [Compound F6, 1-(5-bromopyridin-2-yl)-2-(2,4-difluorophenyl)-1,1-difluoro-3-(5-(methylthio)-1H-tetrazol-1-yl)propan-2-ol], the pest or weed control at 50 ppm [1, 3] is reported as 80 to 100%, the pest or weed control at 50 ppm [1, 4] is reported as 0 to 80% and the “Disease Control SEPTTR 1DP” value ([2]; 50 ppm, 1DP) is reported as “D”. For the same compound, the pest or weed control at 50 ppm [2, 6] was 0 to 80%.

Work on `CCSc1nnnn1CC(O)(c1ccc(F)cc1F)C(F)(F)c1ccc(Oc2ccc(C#N)cc2)cn1` (centres unmarked) [Compound F7] yielded a pest or weed control at 50 ppm [1, 3] of 80 to 100%, a pest or weed control at 50 ppm [1, 4] of 80 to 100% and a pest or weed control at 50 ppm [2, 5] of 0 to 80%. For the same compound, the pest or weed control at 50 ppm [2, 6] was 80 to 100%.

In the case of `OC(Cn1nn[nH]c1=S)(c1ccc(F)cc1F)C(F)(F)c1ccc(Oc2ccc(C(F)(F)F)cn2)cn1` (centres unmarked) [Compound F8], the pest or weed control at 50 ppm [1, 3] is reported as 80 to 100%, the pest or weed control at 50 ppm [1, 4] is reported as 80 to 100% and the pest or weed control at 50 ppm [2, 5] is reported as 80 to 100%. The pest or weed control at 50 ppm [2, 6] was 80 to 100%.

`OC(Cn1nn[nH]c1=S)(c1ccc(F)cc1F)C(F)(F)c1ccc(COC(F)F)cn1` (centres unmarked) [Compound F9] gave a pest or weed control at 50 ppm [1, 3] of 80 to 100%, a pest or weed control at 50 ppm [1, 4] of 80 to 100% and a pest or weed control at 50 ppm [2, 5] of 80 to 100%. For the same compound, the pest or weed control at 50 ppm [2, 6] was 80 to 100%.

With `OC(Cn1nn[nH]c1=S)(c1ccc(F)cc1F)C(F)(F)c1ccc(OC2CC2(F)F)cn1` (centres unmarked) [Compound F10] the pest or weed control at 50 ppm [1, 3] was 80 to 100%, the pest or weed control at 50 ppm [1, 4] was 80 to 100% and the pest or weed control at 50 ppm [2, 5] was 80 to 100%. It also gave a pest or weed control at 50 ppm [2, 6] of 80 to 100% and a melting point of 53 to 57 °C.

Compound `CSc1nnnn1CC(O)(c1ccc(F)cc1F)C(F)(F)c1ccc(Oc2ccc(C#N)cc2)cn1` (centres unmarked) [Compound F11, 4-((6-(2-(2,4-difluorophenyl)-1,1-difluoro-2-hydroxy-3-(5-(methylthio)-1H-tetrazol-1-yl)propyl)pyridin-3-yl)oxy)benzonitrile] has a pest or weed control at 50 ppm [1, 4] of 80 to 100%, a pest or weed control at 50 ppm [2, 5] of 80 to 100% and a pest or weed control at 50 ppm [2, 6] of 80 to 100%.

`N#Cc1ccc(Oc2ccc(C(F)(F)C(O)(Cn3nnnc3SCc3ccccc3)c3ccc(F)cc3F)nc2)cc1` (centres unmarked) [Compound F12] showed a pest or weed control at 50 ppm [1, 4] of 80 to 100%, a pest or weed control at 50 ppm [2, 5] of 0 to 80% and a pest or weed control at 50 ppm [2, 6] of 80 to 100%.

Compound `N#Cc1ccc(Oc2ccc(C(F)(F)C(O)(Cn3nnnc3SCC3CC3)c3ccc(F)cc3F)nc2)cc1` (centres unmarked) [Compound F13] has a pest or weed control at 50 ppm [1, 4] of 80 to 100%, a pest or weed control at 50 ppm [2, 5] of 80 to 100% and a pest or weed control at 50 ppm [2, 6] of 80 to 100%.

Source: patent publication US9447073B2, “Fungicidal compositions” (Viamet Pharmaceuticals, Inc., priority 2013, dated 2016)
